Reference: PMC10419174, “WR1065 conjugated to thiol-PEG polymers as novel anticancer prodrugs: broad spectrum efficacy, synergism, and drug resistance reversal” (Frontiers in Oncology, 2023)
Where “and” joins values, the source holds several entries; their conditions need not be identical. Equal entries are not always repeated. Where two headings read alike, the source gives them in different places. Marks after values point to notes of the source that are not given here.

Tests used:
Assay in all cases: cells
[1] = test system: human cancer cell lines
Description: (§1) The percentage of growth inhibition was calculated as follows: […]

[2] = test system: NCI-H1975 NSCLC cells
Description: as §1

[3] = test system: Ovary TOV21G cells; details: for Fold increase in efficacy: drug alone ÷ drug in 4SP65-DDP combination
Description: as §1

[4] = test system: Prostate LNCaP cells
Description: as §1

[5] = test system: A549 NSCLC cells
Description: as §1

[6] = 4SP65: average across 15 cell lines, 48 h
[7] = 15 cell lines for 4SP65, 11 for 1LP65
[8] = average of A549, H460, PPMMill, LNCaP
[9] = average of HCC38, MDA-MB-231, H1975, HMESO1, PANC1, DU145, PC3
[10] = averages of dose-response metrics across the panel
[11] = averages over 11 cell lines, minimal fold differences
[12] = 48-h treatment, amifostine ND = not definable up to 500 µM
[13] = drug alone, 48 h, 4SP65/cisplatin study

Substance: 4-star-PEG-S-S-WR1065 [4SP65]
- fold more potent than 1LP65, average [1]: 10.4 fold
- fold increases in cytostatic and cytolytic activities, range ([1]; 4SP65-cisplatin combined, H460 and SKOV3 cells): 1.3- to 36 fold
- gains of effect, range (not significant) ([1]; 4SP65-cisplatin combined, HMESO1 and PPMMill cells): 1.1- to 1.3 fold
- LC99, All cell lines [1, 6]: 11.2 ± 1.2 µM
- TGI, All cell lines [1, 6]: 6.8 ± 1.1 µM
- LC99, range for individual cell lines [1, 7]: 3.0 to 21.1 µM
- TGI, range for individual cell lines [1, 7]: 2.0 to 16.3 µM
- fold more effective as a cytostatic agent than PRIMA-1 or APR-246 ([1]; TP53 mutant cells): 2.3- to 30 fold
- fold more effective as a cytostatic agent than PRIMA-1 or APR-246 ([1]; TP53 wild-type cells): 4.3- to 21 fold
- LC99, TP53 Wild-Type [1, 8]: 14.4 ± 1.6 µM
- TGI, TP53 Wild-Type [1, 8]: 9.5 ± 2.0 µM
- LC99, TP53 Mutant [1, 9]: 9.1 ± 0.9 µM
- TGI, TP53 Mutant [1, 9]: 4.4 ± 0.9 µM
- fold more potent than amifostine as a cytostatic agent, average [1, 10]: 55 fold
- fold more potent than amifostine as a cytostatic agent, range [1, 10]: 45- to 63 fold
- Fold difference in drug potency 4SP65 vs 1LP65: GI50 ([1]; averages over 11 cell lines): 10.2
- Fold difference in drug potency 4SP65 vs 1LP65: IC50 ([1]; averages over 11 cell lines): 9.7
- Fold difference in drug potency 4SP65 vs 1LP65: LC50 ([1]; averages over 11 cell lines): 10.4
- Fold difference in drug potency 4SP65 vs 1LP65: LC99 ([1]; averages over 11 cell lines): 11.3
- Fold difference in drug potency 4SP65 vs 1LP65: TGI ([1]; averages over 11 cell lines): 10.2
- Fold difference in drug potency vs amifostine: GI50 [1, 11]: > 45
- Fold difference in drug potency vs amifostine: IC50 [1, 11]: > 57
- Fold difference in drug potency vs amifostine: TGI [1, 11]: > 63
- fold more potent than 1LP65, range ([1]; depending on the dose-response metric): 9.7- to 11.3 fold
- fold greater effect than amifostine ([1]; four cell lines where amifostine GI50 <100 µM): 38 fold
- GI50 ([1]; read-out: GI50, All cell lines, 4SP65: average across 15 cell lines, 48 h): 4.1 ± 0.8 µM
- GI50 ([1]; read-out: GI50, TP53 Mutant, average of HCC38, MDA-MB-231, H1975, HMESO1, PANC1, DU145, PC3): 2.6 ± 0.8 µM
- GI50 ([1]; read-out: GI50, TP53 Wild-Type, average of A549, H460, PPMMill, LNCaP): 5.8 ± 1.4 µM
- GI50 ([1]; read-out: GI50, range for individual cell lines, 15 cell lines for 4SP65, 11 for 1LP65): 0.7 to 10.6 µM
- GI50 ([1]; read-out: GI50 range, seven cell lines compared with NCI data (Table 5)): 0.7 to 9.4 µM
- GI50 ([1]; read-out: average GI50, four cell lines where amifostine GI50 <100 µM): 1.7 µM
- fold potency greater than predicted by four versus one WR1065/molecule ([1]; versus 1LP65): ~ 2.5 fold
- CC50 [2]: 7.6 ± 1.3 µM
- GI50 [2, 12]: 3.1 ± 0.6 µM
- IC50 [2, 12]: 4.2 ± 1 µM
- LC99 [2, 12]: 9.3 ± 1.1 µM
- TGI [2, 12]: 5.2 ± 0.9 µM
- Dose reduction value 1LP65 ÷ 4SP65 ([2]; at GI50): 13 fold
- Dose reduction value AMF ÷ 4SP65 ([2]; at GI50): 42 fold
- Dose reduction value 1LP65 ÷ 4SP65 ([2]; at IC50): 13 fold
- Dose reduction value 1LP65 ÷ 4SP65 ([2]; at LC50): 8.3 fold
- Dose reduction value 1LP65 ÷ 4SP65 ([2]; at LC99): 9.3 fold
- Dose reduction value 1LP65 ÷ 4SP65 ([2]; at TGI): 10 fold
- CC50 [3]: 2.7 µM
- gains in total growth inhibition and cytolytic effects, range ([3]; 4SP65-cisplatin combined): 2.4- to 3.2 fold
- GI50 [3, 12]: 0.9 ± 0.4 µM
- IC50 [3, 12]: 1.2 ± 0.3 µM
- TGI [3, 12]: 2.0 ± 0.4 µM
- LC99, drug in combination (CMB) ([3]; amount of each drug in combination, ratio 14% 4SP65:86% DDP, 48 h): 0.95 µM
- Dose reduction value 1LP65 ÷ 4SP65 ([3]; at GI50): 24 fold
- Dose reduction value AMF ÷ 4SP65 ([3]; at GI50): 52 fold
- Dose reduction value 1LP65 ÷ 4SP65 ([3]; at IC50): 22 fold
- Dose reduction value AMF ÷ 4SP65 ([3]; at IC50): 41 fold
- Dose reduction value 1LP65 ÷ 4SP65 ([3]; at LC50): 19 fold
- Dose reduction value 1LP65 ÷ 4SP65 ([3]; at LC99): 31 fold
- Dose reduction value 1LP65 ÷ 4SP65 ([3]; at TGI): 27 fold
- Fold increase in efficacy ([3]; at GI50): 2.3 (NS) fold
- Fold increase in efficacy ([3]; at IC50): 1.9 (NS) fold
- Fold increase in efficacy ([3]; at LC50): 3.0*** fold
- Fold increase in efficacy ([3]; at LC99): 3.2*** fold
- Fold increase in efficacy ([3]; at TGI): 2.4* fold
- GI50 [3, 13]: 0.93 ± 0.37 µM
- IC50 [3, 13]: 1.2 ± 0.3 µM
- LC99 [3, 13]: 3.0 µM and 3.0 ± 0.2 µM
- TGI [3, 13]: 2.0 ± 0.4 µM
- CC50 [4]: 7.3 ± 1.8 µM
- GI50 [4, 12]: 2.5 ± 1 µM
- IC50 [4, 12]: 3.1 ± 1.5 µM
- LC99 [4, 12]: 10.1 ± 1.0 µM
- TGI [4, 12]: 4.7 ± 1.5 µM
- Dose reduction value 1LP65 ÷ 4SP65 ([4]; at GI50): 11 fold
- Dose reduction value AMF ÷ 4SP65 ([4]; at GI50): 60 fold
- Dose reduction value 1LP65 ÷ 4SP65 ([4]; at IC50): 14 fold
- Dose reduction value AMF ÷ 4SP65 ([4]; at IC50): 122 fold
- Dose reduction value 1LP65 ÷ 4SP65 ([4]; at LC50): 12 fold
- Dose reduction value 1LP65 ÷ 4SP65 ([4]; at LC99): 11 fold
- Dose reduction value 1LP65 ÷ 4SP65 ([4]; at TGI): 11 fold
- gains of cytostatic and cytolytic activities, range ([5]; 4SP65-cisplatin combined): 1.9- to 2.4 fold
- GI50 [5, 12]: 5.3 ± 1.1 µM
- IC50 [5, 12]: 6.8 ± 1.3 µM
- LC99 [5, 12]: 14.9 ± 3.8 µM
- TGI [5, 12]: 8.5 ± 1.5 µM and 8.5 µM
- LC99, drug in combination (CMB) ([5]; amount of each drug in combination, ratio 50% 4SP65:50% DDP, 48 h): 8 µM
- Dose reduction value 1LP65 ÷ 4SP65 ([5]; at GI50): 9.9 fold
- Dose reduction value AMF ÷ 4SP65 ([5]; at GI50): 43 fold
- Dose reduction value 1LP65 ÷ 4SP65 ([5]; at IC50): 9.8 fold
- Dose reduction value AMF ÷ 4SP65 ([5]; at IC50): 37 fold
- Dose reduction value 1LP65 ÷ 4SP65 ([5]; at LC50): 13 fold
- Dose reduction value 1LP65 ÷ 4SP65 ([5]; at LC99): 13 fold
- Dose reduction value 1LP65 ÷ 4SP65 ([5]; at TGI): 15 fold
- Fold increase in efficacy ([5]; drug alone ÷ drug in 4SP65-DDP combination, at GI50): 2.4* fold
